Test results: patent US4737518A, “Lipid derivatives, their production and use” (Takeda Chemical Industries, Ltd., priority 1984, dated 1988)
Where “and” joins values, the source holds several entries; their conditions need not be identical. Equal values may be shown once.

Assays:
B16-BL6 cells = assay: Cell growth inhibition assay, B16-BL6; assay type: cell-based; conditions: Mus musculus, 72 h, concentration giving T/C 50%, day 4, read-out: ED50 (the source's name)
Description: (§1) 2×10^4 cells per well charged with GIT medium for KB cells (human epidermoid carcinoma cells), A549 cells (human lung carcinoma cells) and HSC-1 cells (human skin squamous carcinoma cells), and 4×10^4 cells for B16-BL6 cells (mouse melanoma cells) and 5×10^3 cells for Neuro-2a cells were inoculated. On day 1 (next day), various concentrations of the compound of Example 108 were added. On day 4, cells were suspended in a solution of trypsin-EDTA and the number of cells was counted. The ratio of cell number in treated culture to that in control culture was estimated as T/C (%) value. The concentration of the compound of Example 108 giving a value of T/C, 50% was defined as ED50.

Neuro-2a cells [1] = assay: Cell growth inhibition assay, Neuro-2a; assay type: cell-based; conditions: Mus musculus, N2a, 72 h, concentration giving T/C 50%, day 4, read-out: ED50 (the source's name)
Description: as §1

A549 cells = assay: Cell growth inhibition assay, A549; assay type: cell-based; conditions: Homo sapiens, 72 h, concentration giving T/C 50%, day 4, read-out: ED50 (the source's name)
Description: as §1

[2] = system: rabbit platelet aggregation by PAF; assay: Inhibitory activity on rabbit platelet aggregation by PAF; assay type: cell-based; conditions: Oryctolagus cuniculus, PAF 1×10^-8 M, read-out: rate of inhibition of rabbit platelet aggregation by PAF
PAF-induced hypotension = assay: Inhibitory activity against PAF-induced hypotension in rats; assay type: in vivo, rat (male Spraque-Dawley); conditions: PAF 0.3 μg/kg i.v.
Description: Inhibitory activity against PAF-induced hypotension in rats
Male Spraque-Dawley rats, with a body weight of about 400 g, were used under pentobarbital sodium (50 mg/kg, intravenous administration) anesthesia. A cannula was inserted into the femoral artery and secured in position for measurement of blood pressure and another cannula into the femoral vein for administration of a solution of the drug. The blood pressure was measured via a pressure transducer and recorded on a polygraph. First, 0.3 μg/kg of PAF was administered intravenously and the hypotensive response was recorded.
The inhibitory activity against PAF-induced hypotension was estimated from the rate of PAF-induced hypotensive response (Δ mmHg) after the drug administration to hypotensive response (Δ mmHg) by PAF before the drug administration.

HL-60 cells = assay: Effect on inducing differentiation of HL-60 cells (NBT-positive cells); assay type: cell-based, human; conditions: 6 days
Description: Assay of the effects on inducing differentiation of HL-60 cells (human promyelocytic leukemia cells) and Neuro-2a cells (mouse neuroblastoma cells): RPMI-1640 medium (Flow Laboratories, Inc.) supplemented with 20% fetal calf serum (M.A. […] The culture was incubated at 37° C. in a 5% CO2 incubator for 6 days. […] The reaction was allowed to proceed at 37° C. for 20 minutes. The reaction was stopped by cooling with ice, and the cells were washed by means of centrifugation, followed by collecting 3-5×10^4 cells and by subjecting to centrifugation using Cytospin centrifuge to prepare a cell smear, which was fixed with methanol and stained with Kernechtrot solution. On each cell smear, the percentage of NBT-positive cells relative to live cells, […] by examination of a minimum of 200 cells, was expressed as the differentiation extent.

Neuro-2a cells [3] = assay: Effect on morphological differentiation of neuroblastoma Neuro-2a; assay type: cell-based, mouse; conditions: three days, untreated 22
Description: Assay of the effects on inducing differentiation of HL-60 cells (human promyelocytic leukemia cells) and Neuro-2a cells (mouse neuroblastoma cells):
For Neuor-2a cells, 1×10^4 cells were inoculated into GIT medium (Daigo-eiyo Chemicals, Japan) and one day later various amounts of the compound of Example 108 were added. The cells were incubated for following three days at 37° C. in a 5% CO2 incubator.
The percentage of cells that were morphologically similar to neurocyte with extended neurite was determined by microscopical examination of cells more than 200.

[4] = system: endotoxin-induced hypotension; assay: Anti-endotoxin shock activity in rats; assay type: in vivo, rat (male Spraque-Dawley); conditions: endotoxin 15 mg/kg i.v., one minute after
Description: Anti-endotoxin shock activity in rats
Male Spraque-Dawley rats weighting about 400 g were used under pentobarbital sodium (50 mg/kg, i.v.) anesthesia. A cannula was inserted into the femoral artery and secured in position for measurement of blood pressure and another cannula into femoral vein for administration of a solution of the drug. The blood pressure was measured via a pressure transducer and recorded on a polygraph. First, a suspension of endotoxin (15 mg/kg) [Lipopolysaccharide W.E. coli 0111: B4, Wako Pure Chemical] in physiological saline was administered intravenously and the maximum hypotensive response (Δ mmHg) occurring 3 to 5 minutes after administration was recorded. Simultaneously, the compound of Example 108 was dissolved in physiological saline and administered intravenously in a dose of 1 to 100 μg/kg. The restortion rate against endotoxin-induced hypotension one minute after the administration was calculated. The presence of preventive activity against endotoxin shock was judged from the strength of the restoration rate.

HSC-1 cells = assay: Cell growth inhibition assay, HSC-1; assay type: cell-based; conditions: Homo sapiens, 72 h, concentration giving T/C 50%, day 4, read-out: ED50 (the source's name)
Description: as §1

KB cells = assay: Cell growth inhibition assay, KB; assay type: cell-based; conditions: Homo sapiens, 72 h, concentration giving T/C 50%, day 4, read-out: ED50 (the source's name)
Description: as §1

CCCCCCCCCCCCCCCCCCNC(=O)OCC(COC(=O)N(Cc1cccc[n+]1CC)C(C)=O)OC (stereo not drawn) [Example 108, 1-Ethyl-2-[N-acetyl-N-(3-octadecylcarbamoyloxy-2-methoxypropyloxy)carbonyl]aminomethylpyridinium chloride]
IC50 (B16-BL6 cells): 2.5 µg/mL | IC50 (Neuro-2a cells [1]): 5 µg/mL | IC50 (A549 cells): 0.63 µg/mL | inhibition at 30 µM ([2]; test drug 3 × 10^-5 M): 100% | inhibition at 3 µM ([2]; test drug 3 × 10^-6 M): 100% | inhibition at 0.3 µM ([2]; test drug 3 × 10^-7 M): 100% | Restoration rate (PAF-induced hypotension; 0.1 mg/kg i.v., after 5 min): 100% | Restoration rate (PAF-induced hypotension; 0.1 mg/kg i.v., after 60 min): 55% | Restoration rate (PAF-induced hypotension; 1 mg/kg i.v., after 5 min): 100% | Restoration rate (PAF-induced hypotension; 1 mg/kg i.v., after 60 min): 100% | Maximum differentiation extent: Optimal conc. (HL-60 cells): 0.63 µg/mL | Emax (HL-60 cells; Homo sapiens, HL-60, 144 h, at optimal conc., NBT-positive relative to live cells, read-out: Maximum differentiation extent: Differentiation): 83% | % of cells with neurite (Neuro-2a cells [3]; 2.5 μg/ml): 26% | % of cells with neurite (Neuro-2a cells [3]; 5 μg/ml): 33% | % of cells with neurite (Neuro-2a cells [3]; 10 μg/ml): 35% | % of cells with neurite (Neuro-2a cells [3]; 15 μg/ml): 44% | % of cells with neurite (Neuro-2a cells [3]; 20 μg/ml): 74% | Restoration rate against endotoxin-induced hypotension ([4]; 0.01 mg/kg i.v., 2 rats, single values): 100% and 59% | Restoration rate against endotoxin-induced hypotension ([4]; 0.1 mg/kg i.v., 3 rats, mean ± standard error): 97 ± 1% | IC50 (HSC-1 cells): 0.63 µg/mL | IC50 (KB cells): 0.16 µg/mL
